Experimental data as given in patent US20100075957A1, “AMINODIHYDROTHIAZINE DERIVATIVES SUBSTITUTED WITH A CYCLIC GROUP” (SHIONOGI & CO., LTD., priority 2007, published 2010).
Like-named read-outs stand apart in the source and are kept apart here.

Target: T1, Recombinant human BACE-1 (Homo sapiens, UniProt P56817)
T1 construct: purchased R&D Systems
Test: Assay of β-secretase-inhibiting activity;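 further: substrate is a peptide carrying biotin and europium cryptate, after the enzyme reaction, Streptavidin-XL665 is added and incubated 1 h at 30 °C before fluorescence reading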
Type: biochemical
Conditions: Recombinant human BACE-1 7.4 nM, substrate peptide 18 nM, pH 5.0, 30° C., 3 hours

[1] = time-resolved fluorescence ratio 665/620, read-out: IC50 values (50% inhibitory concentration against the enzymatic activity)

T1 sequence (P56817 46-501): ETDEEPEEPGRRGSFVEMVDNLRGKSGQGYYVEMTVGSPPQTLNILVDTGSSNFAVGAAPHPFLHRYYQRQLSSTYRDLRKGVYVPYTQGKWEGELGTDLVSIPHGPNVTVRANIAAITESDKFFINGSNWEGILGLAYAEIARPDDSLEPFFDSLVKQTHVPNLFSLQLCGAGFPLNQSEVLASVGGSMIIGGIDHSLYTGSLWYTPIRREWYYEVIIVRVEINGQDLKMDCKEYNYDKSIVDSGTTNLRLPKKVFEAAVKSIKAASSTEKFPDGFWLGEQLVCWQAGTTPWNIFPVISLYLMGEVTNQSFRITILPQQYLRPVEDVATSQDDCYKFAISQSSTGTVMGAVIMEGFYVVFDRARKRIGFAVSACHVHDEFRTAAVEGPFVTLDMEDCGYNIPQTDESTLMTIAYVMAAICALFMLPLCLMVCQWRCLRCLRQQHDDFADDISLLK

| Structure (SMILES) | IC50 [1] | further results |
| --- | --- | --- |
| Cc1cnc(C(=O)Nc2ccc(F)c([C@@]3(C)N=C(N)SCC3(F)F)c2)cn1 [Compound 662] | – | IC50 (Table 141, read-out: IC50): 170 nM |
| C[C@@]1(c2cc(NC(=O)c3cnc(-c4ccoc4)cn3)ccc2F)CCSC(N)=N1 [Compound 158] | ≤ 1000 nM | – |
| C[C@@]1(c2cc(NC(=O)c3ccc(OCC#CCN)cn3)ccc2F)CCSC(N)=N1 [Compound 566] | – | IC50 (Table 140, read-out: IC50): 180 nM |
| CC(C)c1nnsc1C(=O)Nc1ccc(F)c(C2(C)CCSC(N)=N2)c1 (centres unmarked) [Compound 520] | ≤ 1000 nM | – |
| Cc1cc(C(=O)Nc2cncc([C@]3(C)CCSC(N)=N3)c2)n(C)n1 [Compound 476] | ≤ 1000 nM | – |
| C[C@@]1(c2cc(NC(=O)c3cn4cc(C#N)nc4cn3)ccc2F)CCSC(N)=N1 [Compound 697] | ≤ 1000 nM | – |
| C[C@@]1(c2cc(NC(=O)c3cnc(Cl)cn3)ccc2F)CCSC(N)=N1 [Compound 78] | ≤ 1000 nM | – |
| CCOc1cnc(C(=O)Nc2ccc(F)c([C@]3(C)CCSC(N)=N3)c2)cn1 [Compound 134] | ≤ 1000 nM | – |
| CC(C)=NOc1cnc(C(=O)Nc2cccc([C@]3(C)CCSC(N)=N3)c2)cn1 [Compound 113] | ≤ 1000 nM | – |
| Cc1cn(-c2cnc(C(=O)Nc3ccc(F)c([C@]4(C)CCSC(N)=N4)c3)cn2)cn1 [Compound 578] | ≤ 1000 nM | – |
| COCc1ccc(C(=O)Nc2ccc(F)c([C@]3(C)CCSC(N)=N3)c2)o1 [Compound 522] | ≤ 1000 nM | – |
| CC1(c2cc(NC(=O)c3cnc(Cl)cn3)cc(F)c2F)CCSC(N)=N1 (centres unmarked) [Compound 144] | ≤ 1000 nM | – |
| COCCOc1cnc(C(=O)Nc2ccc(F)c([C@]3(C)CCSC(N)=N3)c2)cn1 [Compound 75] | ≤ 1000 nM | – |
| COCCOc1cnc(C(=O)Nc2cc([C@]3(C)CCSC(N)=N3)ccn2)cn1 [Compound 591] | – | IC50 (Table 140, read-out: IC50): 100 nM |
| Cc1cnc(C(=O)Nc2ccnc([C@]3(C)CC(C)(C)SC(N)=N3)c2)cn1 [Compound 653] | ≤ 1000 nM | – |
| CNCC#CCOc1ccc(C(=O)Nc2ccc(F)c([C@]3(C)CCSC(N)=N3)c2)nc1 [Compound 569] | ≤ 1000 nM | – |
| C[C@@]1(c2cc(NC(=O)c3nc4cnccc4[nH]3)ccc2F)CCSC(N)=N1 [Compound 484] | – | IC50 (Table 140, read-out: IC50): 290 nM |
| C[C@@]1(c2cccc(NC(=O)c3cnc(OCCC(F)(F)F)cn3)c2)CCSC(N)=N1 [Compound 89] | ≤ 1000 nM | – |
| CC1(C)C[C@@](C)(c2cc(NC(=O)c3ncccc3F)ccn2)N=C(N)S1 [Compound 655] | – | IC50 (Table 141, read-out: IC50): 10 nM |
| C[C@@]1(c2cncc(NC(=O)c3ccc(Cl)s3)c2)CCSC(N)=N1 [Compound 504] | ≤ 1000 nM | – |
| COc1cc(C(=O)Nc2cncc([C@]3(C)CCSC(N)=N3)c2)n(C)n1 [Compound 473] | – | IC50 (Table 140, read-out: IC50): 170 nM |
| CCn1nc(C)cc1C(=O)Nc1cncc([C@]2(C)CCSC(N)=N2)c1 [Compound 479] | ≤ 1000 nM | – |
| C#CCOc1cnc(C(=O)Nc2cccc([C@]3(C)CC(C)(C)SC(N)=N3)c2)cn1 [Compound 693] | ≤ 1000 nM | – |
| CC#CCCOc1cnc(C(=O)Nc2cccc([C@]3(C)CCSC(N)=N3)c2)cn1 [Compound 106] | – | IC50 (Table 139, read-out: IC50): 120 nM |
| COc1cnc(C(=O)Nc2ccc(F)c([C@]3(C)CCSC(N)=N3)c2)c(F)c1 [Compound 512] | ≤ 1000 nM | – |
| C[C@@]1(c2cc(NC(=O)c3c[nH]nc3C3CC3)ccc2F)CCSC(N)=N1 [Compound 499] | ≤ 1000 nM | – |
| C[C@@]1(c2cncc(NC(=O)c3ncc(Cl)cc3Cl)c2)CCSC(N)=N1 [Compound 572] | ≤ 1000 nM | – |

| Structure (SMILES) | IC50 [1] | further results |
| --- | --- | --- |
| C[C@@]1(c2cc(NC(=O)c3cn4cc(C(F)(F)F)nc4cn3)ccc2F)CCSC(N)=N1 [Compound 651] | ≤ 1000 nM | – |
| CCc1cnc(C(=O)Nc2cccc([C@]3(C)CCSC(N)=N3)c2)cn1 [Compound 63] | ≤ 1000 nM | – |
| C[C@@]1(c2cc(NC(=O)c3ncc(Cl)cc3Cl)ccc2F)CCSC(N)=N1 [Compound 690] | ≤ 1000 nM | – |
| Cc1cnc(C(=O)Nc2ccc(F)c([C@]3(C)CC(C)(C)SC(N)=N3)c2)cn1 [Compound 606] | ≤ 1000 nM | – |
| Cc1nc(C(=O)Nc2cnc(Cl)c([C@]3(C)CCSC(N)=N3)c2)c(C)o1 [Compound 586] | ≤ 1000 nM | – |
| C[C@@]1(c2cncc(NC(=O)c3cc(Br)cs3)c2)CCSC(N)=N1 [Compound 516] | ≤ 1000 nM | – |
| CCN1N=C(C(=O)Nc2ccc(F)c([C@]3(C)CCSC(N)=N3)c2)CCC1=O [Compound 477] | ≤ 1000 nM | – |
| C[C@]1(c2cc(NC(=O)c3ncc(Cl)cc3Cl)ccc2F)N=C(N)SCC1=O [Compound 687] | ≤ 1000 nM | – |
| CSc1cnc(C(=O)Nc2cccc([C@]3(C)CCSC(N)=N3)c2)cn1 [Compound 69] | ≤ 1000 nM | – |
| COc1cnc(C(=O)Nc2cccc([C@]3(C)CC(C)(C)SC(N)=N3)c2)cn1 [Compound 694] | ≤ 1000 nM | – |
| Cc1nnsc1C(=O)Nc1ccc(F)c([C@]2(C)CCSC(N)=N2)c1 [Compound 481] | – | IC50 (Table 140, read-out: IC50): 50 nM |
| Cc1nc(C(=O)Nc2ccc(F)c([C@]3(C)CCSC(N)=N3)c2)c(C(F)(F)F)o1 [Compound 471] | ≤ 1000 nM | – |
| C[C@@]1(c2cc(NC(=O)c3cc4cccnc4s3)ccc2F)CCSC(N)=N1 [Compound 539] | ≤ 1000 nM | – |
| C[C@@]1(c2cc(NC(=O)c3ncc(OCC(F)(F)F)nc3N)ccc2F)CCSC(N)=N1 [Compound 165] | ≤ 1000 nM | – |
| C#CCOc1cnc(C(=O)Nc2cccc([C@]3(C)CCSC(N)=N3)c2)cn1 [Compound 103] | ≤ 1000 nM | – |
| COc1cnc(C(=O)Nc2cccc([C@]3(C)CCSC(N)=N3)n2)cn1 [Compound 589] | – | IC50 (Table 140, read-out: IC50): 60 nM |
| C[C@@]1(c2cc(NC(=O)c3cc4nccnc4s3)ccc2F)CCSC(N)=N1 [Compound 521] | – | IC50 (Table 140, read-out: IC50): 180 nM |
| COCCOc1cnc(C(=O)Nc2cncc([C@]3(C)CC(C)(C)SC(N)=N3)c2)cn1 [Compound 562] | ≤ 1000 nM | – |
| CCOc1nccnc1C(=O)Nc1ccc(F)c([C@]2(C)CCSC(N)=N2)c1 [Compound 43] | ≤ 1000 nM | – |
| C[C@@]1(c2cccc(NC(=O)C#Cc3ccccc3)c2)CCSC(N)=N1 [Compound 64] | ≤ 1000 nM | – |
| COCCOc1cnc(C(=O)Nc2cncc([C@]3(C)CCSC(N)=N3)c2)cn1 [Compound 590] | ≤ 1000 nM | – |
| Cc1cc(C(=O)Nc2cncc([C@]3(C)CCSC(N)=N3)c2)on1 [Compound 474] | ≤ 1000 nM | – |
| Cc1noc(C)c1C(=O)Nc1ccc(F)c([C@]2(C)CCSC(N)=N2)c1 [Compound 500] | ≤ 1000 nM | – |
| CC1(C)C[C@@](C)(c2cc(NC(=O)c3cnc(OCCF)cn3)ccn2)N=C(N)S1 [Compound 658] | ≤ 1000 nM | – |
| CC#CCOc1cnc(C(=O)Nc2ccc(C)c(C3(C)CCSC(N)=N3)c2)cn1 (centres unmarked) [Compound 142] | ≤ 1000 nM | – |
| C[C@@]1(c2cc(NC(=O)c3cnc(OCC(F)F)cn3)ccc2F)CCSC(N)=N1 [Compound 131] | ≤ 1000 nM | – |
| COc1nc(Nc2ccc(F)c([C@]3(C)CCSC(N)=N3)c2)nc(OC)n1 [Compound 126] | – | IC50 (Table 139, read-out: IC50): 2140 nM |

| Structure (SMILES) | IC50 [1] | further results |
| --- | --- | --- |
| COC/C=C\c1cnc(C(=O)Nc2ccc(F)c([C@]3(C)CCSC(N)=N3)c2)cn1 [Compound 117] | ≤ 1000 nM | – |
| COc1nccnc1C(=O)Nc1ccc(F)c([C@]2(C)CCSC(N)=N2)c1 [Compound 85] | ≤ 1000 nM | – |
| C[C@@]1(c2cc(NC(=O)c3cnc(NCC#N)cn3)ccc2F)CCSC(N)=N1 [Compound 701] | ≤ 1000 nM | – |
| C#CCCOc1cnc(C(=O)Nc2cccc([C@]3(C)CCSC(N)=N3)c2)cn1 [Compound 105] | – | IC50 (Table 139, read-out: IC50): 130 nM |
| Cc1nc(C)c(C(=O)Nc2ccc(F)c([C@]3(C)CCSC(N)=N3)c2)s1 [Compound 12] | – | IC50 (Table 139, read-out: IC50): 160 nM |
| CC#CCOc1cnc(C(=O)Nc2cc(F)c(F)c(C3(C)CCSC(N)=N3)c2)cn1 (centres unmarked) [Compound 145] | ≤ 1000 nM | – |
| CCSc1cnc(C(=O)Nc2cccc([C@]3(C)CCSC(N)=N3)c2)cn1 [Compound 80] | – | IC50 (Table 139, read-out: IC50): 70 nM |
| COc1nc(C(=O)Nc2ccc(F)c([C@]3(C)CCSC(N)=N3)c2)co1 [Compound 667] | – | IC50 (Table 141, read-out: IC50): 20 nM |
| C[C@@]1(c2cc(NC(=O)c3ncc(C(F)(F)F)cc3Cl)ccn2)CCSC(N)=N1 [Compound 678] | ≤ 1000 nM | – |
| CSc1ccc(C(=O)Nc2cccc([C@]3(C)CCSC(N)=N3)c2)nc1 [Compound 33] | ≤ 1000 nM | – |
| C[C@@]1(c2cc(NC(=O)c3ccc(OCc4ccco4)cn3)ccc2F)CCSC(N)=N1 [Compound 112] | ≤ 1000 nM | – |
| CC#CCOc1ccc(C(=O)Nc2cccc([C@]3(C)CCSC(N)=N3)c2)nc1 [Compound 35] | ≤ 1000 nM | – |
| C[C@@]1(c2cc(NC(=O)c3cnc(-c4ccsc4)cn3)ccc2F)CCSC(N)=N1 [Compound 537] | – | IC50 (Table 140, read-out: IC50): 20 nM |
| C[C@@]1(c2cc(Nc3ncc4ccccn34)ccc2F)CCSC(N)=N1 [Compound 668] | – | IC50 (Table 141, read-out: IC50): 510 nM |
| Cc1cc(SCC(=O)Nc2ccc(F)c([C@]3(C)CCSC(N)=N3)c2)nc(N)n1 [Compound 151] | – | IC50 (Table 139, read-out: IC50): 6770 nM |
| C[C@]1(c2cc(NC(=O)c3ncccc3F)ccc2F)N=C(N)SCC1(F)F [Compound 660] | – | IC50 (Table 141, read-out: IC50): 110 nM |
| Cc1csc(C(=O)Nc2cncc([C@]3(C)CCSC(N)=N3)c2)c1 [Compound 486] | ≤ 1000 nM | – |
| Cc1cc(C(=O)Nc2ccc(F)c([C@]3(C)CCSC(N)=N3)c2)no1 [Compound 20] | ≤ 1000 nM | – |
| COc1cnc(C(=O)Nc2cnc(Cl)c([C@]3(C)CCSC(N)=N3)c2)cn1 [Compound 582] | ≤ 1000 nM | – |
| C[C@@]1(c2cc(NC(=O)c3cnc(OCC4CC4)cn3)ccc2F)CCSC(N)=N1 [Compound 121] | ≤ 1000 nM | – |
| Cc1cc(C(=O)Nc2ccc(F)c([C@]3(C)CCSC(N)=N3)c2)n(C)n1 [Compound 463] | ≤ 1000 nM | – |
| Cc1cc(C)n(-c2cnc(C(=O)Nc3ccc(F)c([C@]4(C)CCSC(N)=N4)c3)cn2)n1 [Compound 579] | – | IC50 (Table 140, read-out: IC50): 140 nM |
| CC#CCOc1cnc(C(=O)Nc2ccc(F)c([C@]3(C)CCSC(N)=N3)c2)cn1 [Compound 100] | ≤ 1000 nM | – |
| Cc1cnc(C(=O)Nc2cc(F)c(F)c(C3(C)CCSC(N)=N3)c2)cn1 (centres unmarked) [Compound 143] | ≤ 1000 nM | – |
| C[C@@]1(c2cc(NC(=O)c3ncccc3F)ccc2F)CCSC(N)=N1 [Compound 511] | ≤ 1000 nM | – |
| COc1cnc(C(=O)Nc2ccc(F)c([C@]3(C)CCSC(N)=N3)c2)c(OC)c1 [Compound 489] | ≤ 1000 nM | – |
